According to publication PMC8971525, “A New Strategy for Multitarget Drug Discovery/Repositioning Through the Identification of Similar 3D Amino Acid Patterns Among Proteins Structures: The Case of Tafluprost and its Effects on Cardiac Ion Channels” (Frontiers in Pharmacology, 2022):

Assays:
NaV1.5 = molecular target: T1, NaV1.5 (Homo sapiens, UniProt Q14524); assay: two-electrode voltage clamp in Xenopus oocytes, block of inward current; assay type: cell-based
T1 construct: gene SCN5A; human Nav1.5 (hH1, M77235) cRNA expressed in Xenopus laevis oocytes

TASK-1 = molecular target: T2, TASK-1 (Homo sapiens, UniProt O14649); assay: two-electrode voltage clamp in Xenopus oocytes, block of outward current; assay type: cell-based
T2 construct: gene KCNK3; human TASK-1 (KCNK3, NM_002246) cRNA expressed in Xenopus laevis oocytes
T2 sequence (O14649 whole entry): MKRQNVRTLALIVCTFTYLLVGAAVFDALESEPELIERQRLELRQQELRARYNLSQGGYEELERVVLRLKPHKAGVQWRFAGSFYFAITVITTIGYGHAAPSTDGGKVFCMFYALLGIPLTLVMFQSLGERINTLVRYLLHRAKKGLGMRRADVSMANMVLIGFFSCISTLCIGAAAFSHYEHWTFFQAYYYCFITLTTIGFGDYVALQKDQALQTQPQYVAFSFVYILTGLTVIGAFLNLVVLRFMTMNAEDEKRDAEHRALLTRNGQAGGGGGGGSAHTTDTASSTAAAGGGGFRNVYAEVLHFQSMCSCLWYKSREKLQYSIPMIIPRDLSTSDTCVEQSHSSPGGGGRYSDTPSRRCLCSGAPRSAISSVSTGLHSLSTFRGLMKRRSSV

T1 sequence (Q14524 whole entry): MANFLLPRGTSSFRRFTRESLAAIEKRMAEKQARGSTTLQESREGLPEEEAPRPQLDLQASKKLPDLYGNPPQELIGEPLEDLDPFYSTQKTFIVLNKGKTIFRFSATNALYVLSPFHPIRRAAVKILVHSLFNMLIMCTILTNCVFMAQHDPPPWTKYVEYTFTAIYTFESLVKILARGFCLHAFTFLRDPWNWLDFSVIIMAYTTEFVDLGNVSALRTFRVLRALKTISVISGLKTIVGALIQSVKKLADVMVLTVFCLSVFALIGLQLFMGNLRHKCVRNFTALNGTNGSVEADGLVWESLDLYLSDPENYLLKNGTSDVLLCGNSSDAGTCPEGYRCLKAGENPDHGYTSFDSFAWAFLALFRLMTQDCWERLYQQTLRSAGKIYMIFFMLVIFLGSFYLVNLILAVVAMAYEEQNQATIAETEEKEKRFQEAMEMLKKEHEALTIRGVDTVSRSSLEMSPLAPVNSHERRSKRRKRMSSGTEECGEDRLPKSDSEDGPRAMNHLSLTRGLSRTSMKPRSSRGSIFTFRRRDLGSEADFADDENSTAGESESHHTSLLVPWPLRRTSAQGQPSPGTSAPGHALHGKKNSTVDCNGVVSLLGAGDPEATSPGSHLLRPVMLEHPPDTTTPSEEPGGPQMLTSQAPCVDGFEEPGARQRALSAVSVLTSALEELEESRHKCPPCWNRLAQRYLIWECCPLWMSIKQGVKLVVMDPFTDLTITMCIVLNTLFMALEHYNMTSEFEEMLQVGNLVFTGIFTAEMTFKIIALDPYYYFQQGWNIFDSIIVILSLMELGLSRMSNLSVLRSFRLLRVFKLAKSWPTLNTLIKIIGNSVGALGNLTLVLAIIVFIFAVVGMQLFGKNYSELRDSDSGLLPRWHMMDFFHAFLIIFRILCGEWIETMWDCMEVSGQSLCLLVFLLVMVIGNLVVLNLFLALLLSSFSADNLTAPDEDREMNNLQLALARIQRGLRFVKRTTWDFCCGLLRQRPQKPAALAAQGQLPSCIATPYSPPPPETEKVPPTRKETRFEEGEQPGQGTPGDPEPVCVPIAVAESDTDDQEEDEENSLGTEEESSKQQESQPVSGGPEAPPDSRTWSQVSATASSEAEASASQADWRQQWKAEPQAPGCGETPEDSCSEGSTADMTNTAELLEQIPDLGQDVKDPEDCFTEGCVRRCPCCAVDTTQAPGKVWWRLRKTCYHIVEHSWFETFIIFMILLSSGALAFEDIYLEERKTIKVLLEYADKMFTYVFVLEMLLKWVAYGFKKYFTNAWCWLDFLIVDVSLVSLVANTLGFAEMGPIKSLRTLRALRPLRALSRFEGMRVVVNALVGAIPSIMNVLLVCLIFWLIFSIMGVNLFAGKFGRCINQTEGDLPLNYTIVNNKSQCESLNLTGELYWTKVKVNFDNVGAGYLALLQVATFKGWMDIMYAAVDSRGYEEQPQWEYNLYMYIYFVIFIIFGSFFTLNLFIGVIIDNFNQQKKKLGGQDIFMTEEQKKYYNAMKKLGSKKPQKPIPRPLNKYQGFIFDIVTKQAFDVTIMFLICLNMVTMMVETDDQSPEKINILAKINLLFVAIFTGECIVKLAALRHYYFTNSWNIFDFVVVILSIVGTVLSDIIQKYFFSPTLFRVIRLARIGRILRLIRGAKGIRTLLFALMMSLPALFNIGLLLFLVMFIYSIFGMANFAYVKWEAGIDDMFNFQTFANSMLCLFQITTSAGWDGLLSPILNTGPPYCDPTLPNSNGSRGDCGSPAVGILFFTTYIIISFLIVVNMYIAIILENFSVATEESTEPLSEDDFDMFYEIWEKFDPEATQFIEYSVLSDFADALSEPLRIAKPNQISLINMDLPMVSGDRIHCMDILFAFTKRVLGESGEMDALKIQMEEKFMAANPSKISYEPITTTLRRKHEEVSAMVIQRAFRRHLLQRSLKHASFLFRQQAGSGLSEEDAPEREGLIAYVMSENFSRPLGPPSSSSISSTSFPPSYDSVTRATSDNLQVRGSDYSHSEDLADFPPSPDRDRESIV

EC50 (TASK-1): 0.186 ± 0.04 µM
SMILES: CC(C)OC(=O)CCC/C=C\C[C@@H]1[C@@H](/C=C/C(F)(F)COc2ccccc2)[C@H](O)C[C@@H]1O [tafluprost]
IC50 (NaV1.5): ~76 µM
